In patent US7635709B2, “Compositions and methods for bowel care in individuals with chronic intestinal pseudo-obstruction” (priority 2002, dated 2009):

Experiments:
persons with SCI [1] = assay: Bowel evacuation score by video fluoroscopy after rectal barium-oatmeal paste in thirteen SCI subjects (Example 3); format: in vivo, human; details: IV bolus 2 mg neostigmine, with or without 0.4 mg glycopyrrolate, 13 SCI subjects
Description: (§1) Thirteen (13) persons with SCI (5 quadriplegics, 8 paraplegics) with a mean age of 46 years (range 25-69) and mean duration of injury of 16 years (range 1-31) were treated. None of the subjects had known heart disease and/or history of arrhythmias.
(§2) On separate days, subjects were given by IV bolus either (i) 2 mg neostigmine alone, (ii) a combination of 2 mg neostigmine and 0.4 mg glycopyrrolate, or (iii) normal saline. Subjects were blinded to the type of infusion being delivered. The effect of these infusions on bowel evacuation was assessed semi-quantitatively on a scale of 0 (no evacuation) to 4+ (complete evacuation) using video fluoroscopy after rectal instillation of a barium-oatmeal paste having a consistency similar to that of stool. Blood pressure, heart rate and other vital signs were monitored in each subject. In addition, airway resistances were determined in each subject using the forced oscillation technique (as described, for example, in Goldman, Pulm. Pharmacol. Ther., 14(5):341-350, 2001). Total airway resistance was determined using 5 Hz forced oscillations, and central airway resistance was determined using 20 Hz forced oscillations.
This response received a 0 (zero) bowel evacuation score. FIGS. 1B-1E show progressively increasing bowel evacuation responses in different subjects. The responses in FIGS. 1B-1E correspond to bowel evacuation scores of 1+, 2+, 3+, and 4+, respectively.

persons with SCI [2] = assay: Heart rate, blood pressure and side effects monitoring in thirteen SCI subjects (Example 3); format: in vivo, human; details: IV bolus 2 mg neostigmine, with or without 0.4 mg glycopyrrolate, 13 SCI subjects
Description: as §1, §2

persons with SCI [3] = assay: Airway resistance by forced oscillation technique in thirteen SCI subjects (Example 3); format: in vivo, human; details: IV bolus 2 mg neostigmine
Description: as §2

[4] = test system: patients with acute colonic pseudo-obstruction; details: Ponec et al. 1999; cited from earlier work

## CN(C)C(=O)Oc1cccc([N+](C)(C)C)c1 [neostigmine]
Persons with SCI [1]
  subjects with prompt and complete evacuation: 57 % of subjects
  time of evacuation post infusion, mean: 11 min
Persons with SCI [1]; scale 0 (no evacuation) to 4+ (complete evacuation)
  mean bowel evacuation score: about 2.29
Persons with SCI [2]
  change in blood pressure after administration: No change
  other side effects (muscle twitching, sweating, vague abdominal sensations, salivation): transient and minimal
Persons with SCI [2]; p=0.02 between groups
  mean lowest heart rate measured: about 49 BMP
Persons with SCI [3]; 5 Hz forced oscillations
  total airway resistance, increase over baseline: approximately 25.5%
Persons with SCI [3]; 20 Hz forced oscillations
  central airway resistance, increase over baseline: approximately 18.4%
[4]
  passage of flatus or stool with reduction in abdominal distention: most patients successfully passed flatus or stool
